Assay results published in paper PMC9139002, “Naphthoquinone as a New Chemical Scaffold for Leishmanicidal Inhibitors of Leishmania GSK-3” (Biomedicines, 2022).

Tests used:
[1] = test system: L. pifanoi axenic amastigotes; test: Leishmanicidal activity on axenic amastigotes (MTT reduction); assay type: cell-based, Leishmania pifanoi; conditions: Leishmania pifanoi
[2] = test system: L. infantum promastigotes; test: Leishmanicidal activity on promastigotes (MTT reduction), Table 2 and Table S1; assay type: cell-based, Leishmania infantum; conditions: Leishmania infantum
Description: (§1) Both activities were assessed by inhibition of MTT (3-(4,5-dimethylthiazol-2-yl)-2,5-diphenyltetrazolium bromide) reduction, as described in [34]. Samples were made in triplicate and assays were repeated at least twice. DMSO content in the medium was adjusted to 0.25% v/v (final concentration), regardless of the final concentration of the drug, and for the control, the untreated parasites. ICx (inhibitory concentration that inhibits parasite growth or enzymatic activity by x%) was calculated using the statistical module of SigmaPlot v11.0 software.
In a step ahead, the leishmanicidal activity of the compounds on L. pifanoi axenic amastigotes and L. infantum promastigotes was evaluated. Axenic Leishmania amastigotes afford the appraisal of the leishmanicidal activity without the constrains imposed on the access of the compounds to intracellular amastigotes within the parasitophorous vacuole, as well as to preclude the interference of the compounds via host–parasite interface in the final activity. For that, the axenic line of L. pifanoi amastigotes belonging to the mexicana complex was chosen, as in this species the infectivity, antigenicity, and metabolic identity between axenic and intracellular amastigotes have been consistently validated.

[3] = target: T1, LdGSK-3s (Leishmania donovani, UniProt A6N857); test: Inhibition of recombinant LdGSK-3s with Kinase Glo; assay type: biochemical; conditions: recombinant LdGSK-3s, Kinase Glo
Description: (§2) Extraction, purification, and evaluation of compounds against recombinant LdGSK-3s was carried out as described. For that, a recombinant LdGSK-3s with a His-tag was obtained as inclusion bodies, that were further solubilized, and purified by chromatography first on a Ni^2+ column an in a second step on a DEAE (diethylaminoethyl) ionic exchange column. Samples were made in duplicate, and assays were repeated at least three times. IC50 (inhibitory concentration that decreases enzymatic activity by 50%) was calculated using the statistical module of SigmaPlot v11.0 software. Evaluation of compounds against hGSK-3β was performed using human recombinant GSK-3β purchased from Millipore as described previously. Compounds were prepared as a 10 mM stock solution in DMSO.

[4] = test system: L. donovani promastigotes; test: Sub G0/G1 population (propidium iodide flow cytometry); assay type: cell-based, Leishmania donovani; conditions: 2 μM (IC80), 72 h
Description: L. donovani promastigotes (2 × 10^6 cells/mL) in RPMI-HIFCS were incubated with each compound in 24-well plates for 72 h at 26 °C by duplicate. Next, compounds were removed by washing with HBSS-Glc (15,700× g, 4 min, 4 °C) and cells were resuspended in […] of HBSS-Glc, fixed and permeabilized by addition of 200 μL 70% cold EtOH and incubated overnight at 4 °C. Ethanol was removed by centrifugation and cellular pellets washed with HBSS-Glc. Finally, cells were resuspended in 500 μL HBSS-Glc with 20 μg/mL propidium iodide (PI) and 3 mg/mL Ribonuclease A, and incubated in darkness at r. t. for 30 min. PI fluorescence was measured in a Coulter XL EPICS flow cytometer (Beckman Coulter, Nyon, Switzerland) (λEXC = 488 nm, λEM = 620 nm).
Each assay was repeated at least twice. Untreated cells were used as control for a standard cell cycle histogram, and Miltefosine (hexadecylphosphocholine) (15 μM) was used as control for an apoptosis-inducing respiratory inhibitor [51].
Parasites were incubated with the corresponding drug for 72 h, followed by EtOH permeabilization, incubated with 3 mg/mL Ribonuclease A and stained with 20 μg/mL of propidium iodide (PI) before cytofluorometric analysis. (λEXC = 488 nm, λEM = 620 nm). The percentage of subG0/G1 population (enclosed within green bars) stands for degraded chromatin, associated with the apoptotic-like process. Miltefosine (hexadecylphosphocholine, HePc) at 15 μM was added as a control for induction of apoptosis.

[5] = test system: mouse peritoneal macrophages (MPM); test: Cytotoxicity on mouse peritoneal macrophages (MTT reduction); assay type: cell-based; conditions: for Selectivity Index (SI): IC50 MPM/IC50 axenic amastigotes; for IC50: Peritoneal macrophage, mouse peritoneal macrophages, MTT reduction
Description: Leishmania parasites were collected at late exponential growth phase by centrifugation at 1610× g at 4 °C. Elicited mouse peritoneal macrophages (MPM) were obtained from 8-week-old Balb/c mice through i.p. injection with 1 mL of 10% thioglycolate medium 72 h before extraction. Macrophages were obtained by peritoneal washing (10 mL PBS, 4 °C).
as §1

[6] = target: T2, hGSK-3β (Homo sapiens, UniProt P49841); test: Inhibition of human recombinant GSK-3β; assay type: biochemical; conditions: read-out: percentage of inhibition of hGSK-3β
T2 construct: purchased Millipore
Description: as §2

[7] = test system: L. donovani promastigotes; test: Mitochondrial membrane depolarization (Rhodamine 123 accumulation); assay type: cell-based, Leishmania donovani; conditions: 2 μM (IC80), 4 h
[8] = target: T1, LdGSK-3s; test: Mechanism of inhibition of LdGSK-3s (kinetics versus ATP, Eadie–Scatchard plot); assay type: biochemical; conditions: ATP 1 to 10 μM, inhibitor 2.5 and 5 μM, GS2 25 μM
Description: Briefly, kinetic experiments were carried out at four different concentrations of ATP (10, 5, 2.5, and 1 µM), in the absence or presence of the inhibitors, at either 2.5 or 5 µM, while the phospho-glycogen synthase peptide-2 (GS2) substrate was kept constant at 25 µM. The data were processed using Microsoft Excel software and results presented as Eadie–Scatchard plots (v vs. v/[ATP]).

[9] = test system: intracellular L. pifanoi amastigotes; test: Parasite load of macrophages infected with mCherry-L. pifanoi amastigotes; assay type: cell-based, Leishmania pifanoi; conditions: 2 μM

T2 sequence (P49841 whole entry): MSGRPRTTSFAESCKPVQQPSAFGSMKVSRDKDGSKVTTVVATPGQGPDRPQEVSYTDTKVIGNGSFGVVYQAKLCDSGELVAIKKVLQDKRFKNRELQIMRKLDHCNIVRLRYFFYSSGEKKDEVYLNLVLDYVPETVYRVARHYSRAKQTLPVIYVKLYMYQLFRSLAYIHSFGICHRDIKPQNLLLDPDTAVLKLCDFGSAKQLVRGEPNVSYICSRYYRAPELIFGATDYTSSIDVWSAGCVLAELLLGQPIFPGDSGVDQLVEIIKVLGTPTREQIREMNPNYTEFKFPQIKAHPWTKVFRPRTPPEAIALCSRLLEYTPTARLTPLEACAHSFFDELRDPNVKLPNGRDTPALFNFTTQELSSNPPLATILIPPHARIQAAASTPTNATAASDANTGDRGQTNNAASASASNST
T1 sequence (A6N857 entry or part of it): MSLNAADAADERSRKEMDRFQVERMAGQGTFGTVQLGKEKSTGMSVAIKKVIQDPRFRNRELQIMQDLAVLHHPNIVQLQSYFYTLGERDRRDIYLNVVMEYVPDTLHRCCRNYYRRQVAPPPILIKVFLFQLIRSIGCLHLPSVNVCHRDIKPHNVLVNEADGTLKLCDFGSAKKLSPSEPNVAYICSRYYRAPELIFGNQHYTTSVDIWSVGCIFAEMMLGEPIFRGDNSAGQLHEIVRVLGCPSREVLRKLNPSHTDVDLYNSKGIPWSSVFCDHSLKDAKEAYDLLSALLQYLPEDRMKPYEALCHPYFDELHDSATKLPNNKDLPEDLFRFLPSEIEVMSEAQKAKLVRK

Compound	IC50 [1] [µM]	IC50 [2] [µM]	IC50 [3] [µM]	percentage of subG0/G1 population [4] [%]	Selectivity Index (SI) [5]	IC50 [5] [µM]	inhibition at 10 µM [6] [%]	melting point [°C]	decrease of Rh123 fluorescence [7] [%]	mechanism of inhibition of LdGSK-3s [8]	decrease in parasite load [9] [%]
O=C1C(Cl)=C(NCc2ccccc2)C(=O)c2ccccc21	> 25	> 25	> 10	–	–	–	–	–	–	–	–
CCOC(=O)NC1=C(Cl)C(=O)c2ccccc2C1=O [Compound 1, Ethyl-(3-chloro-1,4-naphthoquinone-2-yl)carbamate]	0.15 ± 0.4	1.54 ± 0.01	3.7 ± 0.3	54.0 ± 4.2	20.6	3.1 ± 0.1	30	147 to 149	33.0	ATP competitive inhibitors	–
CC(C)OC(=O)NC1=C(Cl)C(=O)c2ccccc2C1=O [Compound 2, Isopropyl-(3-chloro-1,4-naphthoquinone-2-yl)carbamate]	0.4 ± 0.2	1.47 ± 0.02	2.5 ± 0.2	59.6 ± 1.1	–	4.51 ± 0.3	25	–	26.4	ATP competitive inhibitors	76.3
O=C(NC1=C(Cl)C(=O)c2ccccc2C1=O)OCc1ccccc1 [Compound 3, Benzyl-(3-chloro-1,4-naphthoquinone-2-yl)carbamate]	4.7 ± 0.8	4.9 ± 0.2	2.8 ± 0.1	–	–	9.8 ± 0.2	19	–	–	–	–
COc1ccc(COC(=O)NC2=C(Cl)C(=O)c3ccccc3C2=O)cc1 [Compound 4, 4-Methoxybenzyl-(3-chloro-1,4-naphthoquinone-2-yl)carbamate]	3.7 ± 1.1	2.9 ± 0.2	4.1 ± 0.1	–	2.0	7.4 ± 0.8	–	137 to 147	–	–	–
COc1cc(COC(=O)NC2=C(Cl)C(=O)c3ccccc3C2=O)cc(OC)c1OC [Compound 5, 3,4,5-Trimethoxybenzyl-(3-chloro-1,4-naphthoquinone-2-yl)carbamate]	3.6 ± 0.6	3.8 ± 1.9	4.5 ± 0.6	–	–	8.1 ± 1	–	–	–	–	–
CCCNC1=C(Cl)C(=O)c2ccccc2C1=O [Compound 6, 2-Chloro-3-(propylamino)-1,4-naphthoquinone]	> 25	19.1 ± 1.2	> 10	–	–	–	–	–	–	–	–
CCCCCNC1=C(Cl)C(=O)c2ccccc2C1=O [Compound 7, 2-Chloro-3-(pentylamino)-1,4-naphthoquinone]	> 25	16.9 ± 0.4	> 10	–	–	–	–	–	–	–	–
CC(C)(C)NC1=C(Cl)C(=O)c2ccccc2C1=O [Compound 8, 2-(tert-Butylamino)-3-chloro-1,4-naphthoquinone]	17.8 ± 1.1	19.8 ± 3.6	> 10	–	1.0	17 ± 0.3	–	–	–	–	–
O=C1C(Cl)=C(NC2CCCCC2)C(=O)c2ccccc21 [Compound 9, 2-Chloro-3-(cyclohexylamino)-1,4-naphthoquinone]	> 25	> 25	> 10	–	–	–	–	122 to 123	–	–	–
COc1cc(CNC2=C(Cl)C(=O)c3ccccc3C2=O)cc(OC)c1OC [Compound 10, 2-Chloro-3-((3,4,5-trimethoxybenzyl)amino)-1,4-naphthoquinone]	> 50	> 50	> 10	–	–	–	–	161 to 163	–	–	–
